Measurements published in EP0173480A2, “The antiviral use of phyllanthostatins” (priority 1984, dated 1986).
≈ marks a conversion by molar mass, not a printed value. Like-named read-outs stand apart in the source and are kept apart here.

Experiments:
[1] = test system: Herpes Simplex virus type 2 (HSV-2, strain 35D); test: Genital HSV-2 infection of female mice, virus titers in vaginal secretions; assay type: in vivo; settings: for Mean virus titer in swabs of mice which shed virus / Nv/Nt, swabs with virus/total swabs: 8.0 x 10^4 PFU;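 as to Mean virus titer in swabs of mice which shed virus: titer expressed as log PFU per ml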
[2] = test system: coxsackie B3 virus (Nancy Strain); test: Inhibition of virus replication, virus yield in Vero cells; assay type: cell-based
Vacc. = settings: 50 pg of test compound (so in the source)
[3] = test system: Herpes Simplex virus type 2 (HSV-2, strain 35D); test: Genital HSV-2 infection of female mice, intravaginal treatment, survival; assay type: in vivo; settings: for mice survived (of 14): study of Table 3; for %S (percent survivors) / MDD (mean day of death): N 14
HA-1 = test: Cell culture antiviral activity, agar-well zones of cytotoxicity / plaque inhibition; settings: 50 pg of test compound (so in the source)
[4] = test system: herpes simplex virus type 1 (HSV-1, McIntyre); test: Inhibition of virus replication, virus yield by plaque method; assay type: cell-based
PR-8 = settings: 50 pg of test compound (so in the source)
Coe = test: Cell culture antiviral activity, agar-well zones of cytotoxicity / plaque inhibition; settings: 50 pg of test compound (so in the source)
[5] = test system: herpes simplex virus type 2 (HSV-2, MS); test: Inhibition of virus replication, virus yield by plaque method; assay type: cell-based; settings: for HSV-2 virus yield: Vero cells
[6] = Cytotoxicity of drugs, absorbance at 260 nm of lysed cell monolayers; settings: monkey, vero cells, drug concentration which reduces the OD260 of lysed cells by 50%
Vero cells = test: as above
[7] = Drug toxicity in non-infected female mice treated intravaginally; assay type: in vivo; settings: 1 mg/ml intravaginally 3 x daily x 5 days, compared with saline, zinc acetate groups, same gain by day 15
Description: Where indicated, non-infected mice (5 per group) were treated identically (3 times daily x 5) in order to determine drug toxicity. The groups of mice were weighed at the indicated times.
Non-infected female mice were treated intravaginally with the same drugs, at the same concentrations and with a schedule (3 x daily x 5 days). Animal weights were determined at the time of initiation of treatment (day 0), and again on day 4 (after 12 treatments were given), and again after treatments had been concluded on days 7, 11 and 15. The weights of the groups of mice treated with placebo or the high drug concentrations are shown on Table 3, and the differences in weights in Figure 4. […] Weight gains in mice treated with phyllanthoside (1 mg/ml) were slightly less than that of the above compounds, but by day 15, the mice had the same gain as those treated with phyllanthostatin I, saline or zinc acetate.

coxsackie A21 = assay type: cell-based; settings: ML cells
HSV-1 = test: Cell culture antiviral activity, agar-well zones of cytotoxicity / plaque inhibition; settings: 50 pg of test compound (so in the source)
E.R. = settings: 50 pg of test compound (so in the source)
[8] = test system: VSV (vesicular stomatitis virus); assay type: cell-based; settings: Vero cells; higher drug concentrations (5 and 50 µg/ml) compared with 0.5
HSV-2 = test: Cell culture antiviral activity, agar-well zones of cytotoxicity / plaque inhibition; settings: 50 pg of test compound (so in the source)
[9] = day 1 after HSV-2 inoc., 0.5 mg/ml
[10] = day 1 after HSV-2 inoc., 1 mg/ml
[11] = day 2 after HSV-2 inoc., 0.5 mg/ml
[12] = day 2 after HSV-2 inoc., 1 mg/ml
[13] = day 3 after HSV-2 inoc., 0.5 mg/ml
[14] = day 3 after HSV-2 inoc., 1 mg/ml
[15] = day 4 after HSV-2 inoc., 0.5 mg/ml
[16] = day 4 after HSV-2 inoc., 1 mg/ml
[17] = day 7 after HSV-2 inoc., 0.5 mg/ml
[18] = day 7 after HSV-2 inoc., 1 mg/ml
[19] = 8.0 x 10^3 PFU/0.1 ml, mg/ml cell empty (1 mg/ml in upper section)
[20] = 8.0 x 10^4 PFU/0.1 ml, 1 mg/ml intravaginally
[21] = therapeutic index with ID50 Vero 72 hrs.
[22] = therapeutic index with ID50 Vero 91 hrs.
[23] = higher drug concentrations (5 and 50 µg/ml) compared with 0.5

In the case of `CC(=O)O[C@@H]1[C@@H](O)[C@H](O[C@H]2[C@H](OC(=O)[C@H]3CC[C@@H]4[C@H](C3)O[C@@]3(C[C@H](OC(=O)/C=C/c5ccccc5)[C@H](C)CO3)[C@]43CO3)O[C@H](C)[C@@H](O)[C@@H]2OC(C)=O)O[C@H](C)[C@H]1O` [Phyllanthoside], the “mean titer less than placebo treated groups” value ([1]; 0.5 mg/ml, after the first 3 days) is reported as “about 0.6 logs”, the “mean titer less than placebo treated groups” value ([1]; 0.5 mg/ml, first 3 days) is reported as “about 1 log” and the “mean titer less than saline or DMSO-saline treated groups” value ([1]; 1 mg/ml, day 4) is reported as “about 0.6 logs”. For the same compound, the “mean titer less than saline or DMSO-saline treated groups” value ([1]; 1 mg/ml, days 1, 2 and 3) was “about one”, the “Mean virus titer in swabs of mice which shed virus” value (“Mean virus titer in swabs” below) [1, 9] was 2.46 log PFU/ml and the “Nv/Nt, swabs with virus/total swabs” value [1, 9] was 5/10. For the same compound, the “Nv/Nt, swabs with virus/total swabs” value ([1]; day 1 after HSV-2 inoc., 0.5 mg/ml, listed as phyllanthoside) was 5, the “Mean virus titer in swabs” value [1, 10] was 2.83 log PFU/ml and the “Nv/Nt, swabs with virus/total swabs” value [1, 10] was 2/10. For the same compound, the “Nv/Nt, swabs with virus/total swabs” value ([1]; day 1 after HSV-2 inoc., 1 mg/ml, listed as phyllanthoside) was 2, the “Mean virus titer in swabs” value [1, 11] was 3.45 log PFU/ml and the “Nv/Nt, swabs with virus/total swabs” value [1, 11] was 7/10. The “Mean virus titer in swabs” value [1, 12] was 2.98 log PFU/ml, the “Nv/Nt, swabs with virus/total swabs” value [1, 12] was 3/10 and the “Nv/Nt, swabs with virus/total swabs” value ([1]; day 2 after HSV-2 inoc., 1 mg/ml, listed as phyllanthoside) was 3. For the same compound, the “Mean virus titer in swabs” value [1, 13] was 3.41 log PFU/ml, the “Nv/Nt, swabs with virus/total swabs” value [1, 13] was 8/10 and the “Mean virus titer in swabs” value [1, 14] was 3.11 log PFU/ml. For the same compound, the “Nv/Nt, swabs with virus/total swabs” value [1, 14] was 5/10, the “Nv/Nt, swabs with virus/total swabs” value ([1]; day 3 after HSV-2 inoc., 1 mg/ml, listed as phyllanthoside) was 5 and the “Mean virus titer in swabs” value [1, 15] was 3.73 log PFU/ml. The “Nv/Nt, swabs with virus/total swabs” value [1, 15] was 8/10, the “Mean virus titer in swabs” value [1, 16] was 3.72 log PFU/ml and the “Nv/Nt, swabs with virus/total swabs” value [1, 16] was 4/10. The “Nv/Nt, swabs with virus/total swabs” value ([1]; day 4 after HSV-2 inoc., 1 mg/ml, listed as phyllanthoside) was 4, the “Mean virus titer in swabs” value [1, 17] was 3.98 log PFU/ml and the “Nv/Nt, swabs with virus/total swabs” value [1, 17] was 2/4. The “Mean virus titer in swabs” value [1, 18] was 2.94 log PFU/ml, the “Nv/Nt, swabs with virus/total swabs” value [1, 18] was 3/8 and the “coxsackie B3 virus yield” value ([2]; 5 µg per ml) was “inhibitory for both viruses”. For the same compound, the “coxsackie B3 virus yield” value ([2]; below 5 µg per ml (i.e., 0.5 or 1)) was “unaffected”, the zone of cytotoxicity (Vacc.; first figure of the cell) was 4/4 and the “zone of antiviral activity (viral plaque inhibition)” value (“zone … (viral plaque inhibition)” for short) (Vacc.; second figure of the cell) was 4/4. The “mice survived (of 14)” value ([3]; 8.0 x 10^3 PFU in 0.1 ml) was 13, the “%S (percent survivors)” value [3, 19] was 93% and the “MDD (mean day of death)” value [3, 19] was 14.0 days. The “mice survived (of 14)” value ([3]; 8.0 x 10^4 PFU in 0.1 ml) was 9, the “%S (percent survivors)” value [3, 20] was 64% and the “MDD (mean day of death)” value [3, 20] was 9.0 days. For the same compound, the “protection of mice from lethal genital HSV-2 infection, summary in words” value ([3]; intravaginally from one hour after inoculation, 3 times daily) was “most effective of the compounds”, the mice survived ([3]; second study, 8.0 x 10^4 PFU in 0.1 ml, 0.5 mg/ml) was 1 and the “mice protected from death (of 10)” value ([3]; second study, 8.0 x 10^4 PFU in 0.1 ml, 1 mg/ml) was 7. For the same compound, the zone of cytotoxicity (HA-1; first figure of the cell) was 4, the “zone … (viral plaque inhibition)” value (HA-1; second figure of the cell) was 0 and the HSV-1 virus yield ([4]; Vero cells, higher drug concentrations (5 and 50 µg/ml) compared with 0.5) was “further reductions in all virus yields”. For the same compound, the “T - ID50/ED90, McIntyre” value [4, 21] was 0.6402, the “T - ID50/ED90, McIntyre” value [4, 22] was 1.9115 and the zone of cytotoxicity (PR-8; first figure of the cell) was 3/3. The “zone … (viral plaque inhibition)” value (PR-8; second figure of the cell) was 3/3, the zone of cytotoxicity (Coe; first figure of the cell) was 3 and the “zone … (viral plaque inhibition)” value (Coe; second figure of the cell) was 0. For the same compound, the “ED90 MS” value ([5]; HSV-2 in Vero cells, drug concentration reducing virus titers by 90%, 1440 min) was 1.4958 µg per ml, the EC90 ([5]; Human alphaherpesvirus 2, Vero, 24 h, read-out: ED90 MS) was 1.5 µg/mL (≈ 1.86 µM) and the HSV-2 virus yield ([5]; 0.5 µg/ml) was “most susceptible virus to inhibition”. The HSV-2 virus yield [5, 23] was “further reductions in all virus yields”, the “T - ID50/ED90, MS” value [5, 21] was 0.7989 and the “T - ID50/ED90, MS” value [5, 22] was 2.3854. The CC50 at 72 h ([6]; ID50 Vero 72 hrs., 72 hours) was 1200 µg/mL (≈ 1480 µM), the CC50 at 91 h ([6]; ID50 Vero 91 hrs., table head 91 hrs., b38 96 hours) was 3.57 µg/mL (≈ 4.44 µM) and the “OD260 of lysed cells” value (Vero cells; Vero cells, 0.5 µg per ml, greatly increased OD260 after 72 hours) was “decreased the OD260 during 72 hours”. For the same compound, the “cell growth (OD260 of lysed cells)” value (Vero cells; Vero cells, 1 µg per ml, OD260 increased dramatically at 96 hours) was “cell growth was suppressed to a greater extent during the first 72 hours”, the “ID50 Vero 91 hrs.” value (Vero cells; drug concentration which reduces the OD260 of lysed cells by 50%, table head 91 hrs., b38 96 hours, 5460 min) was 3.568 ug per ml and the weight gains [7] was “slightly less”. For the same compound, the “coxsackie A21 virus yield” value (coxsackie A21; 5 µg/ml (below 5 µg per ml)) was “inhibitory for both viruses”, the “coxsackie A21 virus yield” value (coxsackie A21; below 5 µg per ml (i.e., 0.5 or 1), study of b36) was “reduced titers of coxsackie A21” and the “coxsackie A21 virus yield” value (coxsackie A21; [23]) was “further reductions in all virus yields”. For the same compound, the zone of cytotoxicity (HSV-1; first figure of the cell) was 4/4, the “zone … (viral plaque inhibition)” value (HSV-1; second figure of the cell) was 4/4 and the zone of cytotoxicity (E.R.; first figure of the cell) was 2 (2 - 20-30 mm). The “zone … (viral plaque inhibition)” value (E.R.; second figure of the cell) was 4, the VSV virus yield [8] was “further reductions in all virus yields” and the zone of cytotoxicity (HSV-2; first figure of the cell) was 3. The “zone … (viral plaque inhibition)” value (HSV-2; second figure of the cell) was 4.
